One test has as its target T1, α1β3 GABAAR WT (Homo sapiens, UniProt P14867+P28472).
T1 construct: inserted between the fourth and fifth residues of the mature peptide; photolabeling full-length heteropentameric GABAARs in native membranes; expressed in transfected cells
T1 sequence (P14867 28-456): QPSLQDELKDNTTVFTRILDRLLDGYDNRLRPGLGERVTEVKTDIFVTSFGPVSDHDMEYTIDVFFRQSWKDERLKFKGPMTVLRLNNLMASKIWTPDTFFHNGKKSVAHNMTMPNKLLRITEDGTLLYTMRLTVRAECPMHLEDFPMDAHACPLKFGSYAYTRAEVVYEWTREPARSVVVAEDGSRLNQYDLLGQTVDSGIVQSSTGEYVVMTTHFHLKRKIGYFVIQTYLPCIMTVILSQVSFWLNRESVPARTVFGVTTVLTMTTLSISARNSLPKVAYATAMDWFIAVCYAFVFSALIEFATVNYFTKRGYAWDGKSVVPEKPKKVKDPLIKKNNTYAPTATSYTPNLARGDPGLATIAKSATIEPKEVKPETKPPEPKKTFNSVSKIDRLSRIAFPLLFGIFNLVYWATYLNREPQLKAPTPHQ
T1 sequence (P28472 26-473): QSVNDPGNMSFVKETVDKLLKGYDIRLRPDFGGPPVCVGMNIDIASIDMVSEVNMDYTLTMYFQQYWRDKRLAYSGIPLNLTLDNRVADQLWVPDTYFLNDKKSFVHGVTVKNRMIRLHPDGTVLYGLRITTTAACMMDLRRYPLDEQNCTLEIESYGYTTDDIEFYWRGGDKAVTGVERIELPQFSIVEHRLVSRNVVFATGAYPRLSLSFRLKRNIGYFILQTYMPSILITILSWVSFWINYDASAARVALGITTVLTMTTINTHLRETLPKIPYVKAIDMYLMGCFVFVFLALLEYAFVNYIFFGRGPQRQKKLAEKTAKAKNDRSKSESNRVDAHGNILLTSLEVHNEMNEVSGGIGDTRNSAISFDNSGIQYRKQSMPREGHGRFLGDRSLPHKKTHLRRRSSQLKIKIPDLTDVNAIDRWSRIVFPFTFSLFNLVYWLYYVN
Kind of test: [3H]muscimol binding to HEK cell membranes (neurosteroid modulation and isotherms), WT receptor. Particulars: for Emax (% of control) of [3H]muscimol binding: 100% means no effect; for Bmax of [3H]muscimol binding isotherm in the presence of the modulator: etomidate 100 μM, 3α5αP 30 μM, KK148 30 μM, control 9.8 ± 0.8. The procedure: Stably transfected cells were plated into dishes. After reaching 50% confluence, GABAA receptors were expressed by inducing cells with 1 μg/ml of doxycycline with the addition of 5 mM sodium butyrate. Cells were harvested 48 to 72 hr after induction. HEK cells, after induction, were grown to 100% confluence, harvested and washed with 10 mM potassium phosphate, 100 mM potassium chloride (pH 7.5) plus protease inhibitors (Sigma-Aldrich, St. Louis, MO) two times. The cells were collected by centrifugation at 1,000 g at 4°C for 5 min. The cells were homogenized with a glass mortar and a Teflon pestle for ten strokes on ice. The pellet containing the membrane proteins was collected after centrifugation at 20,000 g at 4°C for 45 min and resuspended in a buffer containing 10 mM potassium phosphate, 100 mM potassium chloride (pH 7.5). The protein concentration was determined with micro-BCA protein assay and membranes were stored at −80°C.
(§1) [^3H]muscimol-binding assays were performed using a previously described method ([Chen et al., 2019]). […] Assay tubes were incubated for 1 hr on ice in the dark. […] Membranes were collected on Whatman/GF-C glass filter papers using a Brandel cell harvester (Gaithersburg, MD). To perform [^3H]muscimol binding isotherms, 100 μg/ml aliquots of membrane protein were incubated with 0.3 nM–1 μM [^3H]muscimol for 1 hr on ice in the dark. The specific activity for [^3H]muscimol concentrations from 30 nM to 1 μM was reduced to 2 Ci/mmol by dilution with nonradioactive muscimol. The membranes were collected on Whatman/GF-B glass filter papers using a vacuum manifold. […] For [^3H]muscimol-binding experiments examining competitive interactions between neurosteroids, the combined neurosteroids (0.3 μM 3α5αP or 3 μM KK148 ±30 μM KK150) or the same volume of dimethyl sulfoxide (DMSO) were added to the membranes which were then incubated with 3 nM [^3H]muscimol on ice for 1 hr. Time courses of neurosteroid [^3H]muscimol binding enhancement were examined by adding 10 µM of neurosteroids (3α5αP, 3β5αP) to membranes that had been fully equilibrated with 3 nM [^3H]muscimol for 1 hr on ice; binding was then measured as a function of time at 1, 3, 10, 30, 60 min. The membranes were collected on Whatman/GF-B glass filter papers using a vacuum manifold. Radioactivity bound to the filters was measured by liquid scintillation spectrometry using Bio-Safe II (Research Products International, Mount Prospect, IL).

For a further test, the target named is α1(Q242L)β3 GABAAR (UniProt P28472+P62813, Q268L). Kind of test: [3H]muscimol binding to HEK cell membranes, intersubunit site mutant. Further details: expressed in transfected cells; host or cells: HEK293S GnTI- (ATCC CRL-3022), transient; species or system rat α1, human β3. Particulars: for Emax (% of control) of [3H]muscimol binding: 100% means no effect. The method, then:
The human α1 and β3 GABAAR subunits were subcloned into pcDNA3 for molecular manipulations and cRNA synthesis. Using QuikChange Site-Directed Mutagenesis Kit (Agilent Technologies, Santa Clara, CA), a FLAG tag was first added to the α1 subunit then an 8xHis tag was added to generate the following His-FLAG tag tandem ([…]), inserted between the fourth and fifth residues of the mature peptide. The α1 and β3 subunits were then transferred into the pcDNA4/TO and pcDNA5/TO vectors (Thermo Fisher Scientific), respectively, for tetracycline inducible expression. Transient expression was done using the GABAAR subunits rat α1FLAG ([Ueno et al., 1996]) and human β3 obtained from Geoffrey White (Neurogen, Branford, CT), each were subcloned into pcDNA3 for molecular manipulations and cRNA synthesis. Point mutations were generated using the QuikChange Site-Directed Mutagenesis Kit (Agilent) and the coding region was fully sequenced prior to use. The cDNAs were linearized with XbaI (NEB Labs, Ipswich, MA), and the cRNAs were generated using T7 mMessage mMachine (Ambion, Austin, TX).
as §1

Where [1] appears, read: WT α1β3, 3 nM [3H]muscimol, 1 hr on ice, read-out: EC50 for modulation of [3H]muscimol binding.

These results are taken from publication PMC7532004, “Site-specific effects of neurosteroids on GABAA receptor activation and desensitization” (eLife, 2020).

Like-named read-outs stand apart in the source and are kept apart here.

Chain of α1(Q242L)β3 GABAAR (P62813 28-455 Q268L, one chain of several): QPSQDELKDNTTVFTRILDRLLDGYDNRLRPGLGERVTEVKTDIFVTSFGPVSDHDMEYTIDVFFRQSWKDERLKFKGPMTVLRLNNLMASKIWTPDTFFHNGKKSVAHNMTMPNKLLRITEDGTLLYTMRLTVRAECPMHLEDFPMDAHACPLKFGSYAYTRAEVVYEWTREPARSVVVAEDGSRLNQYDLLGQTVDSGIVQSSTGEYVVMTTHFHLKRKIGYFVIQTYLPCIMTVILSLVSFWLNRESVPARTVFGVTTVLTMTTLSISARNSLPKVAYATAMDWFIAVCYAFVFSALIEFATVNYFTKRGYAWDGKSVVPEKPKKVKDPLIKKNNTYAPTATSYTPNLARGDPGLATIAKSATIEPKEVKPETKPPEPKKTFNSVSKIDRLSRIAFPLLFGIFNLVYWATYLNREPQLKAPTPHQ

Broadly, the EC50 is the concentration needed to bring the measured effect to its halfway point. `CC(=O)[C@H]1CC[C@H]2[C@@H]3CC[C@H]4C[C@H](O)CC[C@]4(C)[C@H]3CC[C@]12C` [3α5αP, allopregnanolone]: the 50% effective concentration (EC50) at α1β3 GABAAR WT amounted to 240 ± 40 nM; on α1(Q242L)β3 GABAAR, 2660 nM. In addition, the “Hill slope for modulation of [3H]muscimol binding” value (“Hill slope for modulation” below) was determined as 1.10 ± 0.14 at α1β3 GABAAR WT (WT α1β3, 3 nM [3H]muscimol) and 1.16 ± 0.37 at α1(Q242L)β3 GABAAR (α1(Q242L)β3, 3 nM [3H]muscimol). Besides, the “Emax (% of control) of [3H]muscimol binding” value is given as 374.1 ± 11.1 % of control at α1β3 GABAAR WT (WT α1β3, 3 nM [3H]muscimol) and “**159.8 ± 10.9 % of control” at α1(Q242L)β3 GABAAR (α1(Q242L)β3, 3 nM [3H]muscimol). In addition, the “Bmax of [3H]muscimol binding isotherm in the presence of the modulator” value on α1β3 GABAAR WT (WT α1β3) is recorded as 10.3 ± 0.7 pmol/mg. The “Decrease of enhancement of [3H]muscimol binding by mutation” value at α1(Q242L)β3 GABAAR (β3(+)–α1(-) intersubunit site mutation vs WT) is given as ~ 80%.

In the case of `CC(=O)[C@H]1CC[C@H]2[C@@H]3CC[C@H]4C[C@@H](O)CC[C@]4(C)[C@H]3CC[C@]12C` [3β5αP, epi-allopregnanolone], the 50% effective concentration (EC50) came to 260 ± 70 nM on α1β3 GABAAR WT and 270 ± 90 nM at α1(Q242L)β3 GABAAR. The “Time constant (τ) of enhancement of [3H]muscimol binding” value on α1β3 GABAAR WT (10 µM neurosteroid added to membranes equilibrated with 3 nM [3H]muscimol, 4°C) was found to be 3.97 ± 0.15 min. The “Hill slope for modulation” value at α1β3 GABAAR WT (WT α1β3, 3 nM [3H]muscimol) worked out at 0.89 ± 0.26; at α1(Q242L)β3 GABAAR (α1(Q242L)β3, 3 nM [3H]muscimol), 0.77 ± 0.21. Also, the “Emax (% of control) of [3H]muscimol binding” value is 195.6 ± 5.7 % of control on α1β3 GABAAR WT (WT α1β3, 3 nM [3H]muscimol) and 204.3 ± 4.5 % of control at α1(Q242L)β3 GABAAR (α1(Q242L)β3, 3 nM [3H]muscimol).

As to `C#CCCO[C@H]1CC[C@H]2[C@@H]3CC[C@H]4CC5(CC[C@]4(C)[C@H]3CC[C@]12C)N=N5` [KK148], the “Hill slope for modulation” value at α1β3 GABAAR WT (WT α1β3, 3 nM [3H]muscimol) stood at 1.36 ± 0.16; at α1(Q242L)β3 GABAAR (α1(Q242L)β3, 3 nM [3H]muscimol), 1.24 ± 0.12. Besides, the “Emax (% of control) of [3H]muscimol binding” value at α1β3 GABAAR WT (WT α1β3, 3 nM [3H]muscimol) was 431.0 ± 19.5 % of control; at α1(Q242L)β3 GABAAR (α1(Q242L)β3, 3 nM [3H]muscimol) it was 434.5 ± 5.6 % of control. The half-maximal effective concentration (EC50) was found to be 2400 ± 360 nM at α1β3 GABAAR WT (setting [1]) and 2200 ± 310 nM at α1(Q242L)β3 GABAAR (α1(Q242L)β3, 3 nM [3H]muscimol, read-out: EC50 for modulation of [3H]muscimol binding). The “Bmax of [3H]muscimol binding isotherm in the presence of the modulator” value on α1β3 GABAAR WT (WT α1β3) came to 10.8 ± 0.9 pmol/mg.

Regarding `C#CCCO[C@@H]1CC[C@H]2[C@@H]3CC[C@H]4CC5(CC[C@]4(C)[C@H]3CC[C@]12C)N=N5` [KK150], at α1β3 GABAAR WT (30 μM KK150 with 0.3 μM 3α5αP or 3 μM KK148, 3 nM [3H]muscimol), the “Effect on enhancement of [3H]muscimol binding by 3α5αP and KK148” value is on record as “inhibited”. Besides, at α1β3 GABAAR WT (WT α1β3, 3 nM [3H]muscimol), the “Hill slope for modulation” value turned out to be 1.12 ± 0.42 and the “Emax (% of control) of [3H]muscimol binding” value is recorded as 142.5 ± 3.9 % of control. Besides, the concentration for a half-maximal effect (EC50) on α1β3 GABAAR WT (setting [1]) amounted to 2760 ± 2320 nM.

The Kd is the concentration at which binding is half-saturated. For `NCc1cc(=O)[nH]o1` [muscimol], the “Bmax of [3H]muscimol binding isotherm” value is on record as 12.1 ± 1.4 pmol/mg at α1β3 GABAAR WT (WT α1β3) and 9.9 ± 0.6 (P > 0.99 vs. WT) pmol/mg at α1(Q242L)β3 GABAAR (α1(Q242L)β3). Besides, the dissociation constant (Kd) on α1β3 GABAAR WT (WT α1β3, 0.3 nM–1 μM [3H]muscimol, read-out: Kd of [3H]muscimol binding isotherm) is 48.1 ± 4 nM; on α1(Q242L)β3 GABAAR (α1(Q242L)β3, read-out: Kd of [3H]muscimol binding isotherm), 44.3 ± 4.6 nM.
